Data taken from patent publication US11578077B2, “Spiro-oxazolones” (Hoffmann-La Roche Inc., priority 2013, dated 2023).

Biological target: human V1a receptor (Homo sapiens (Human), UniProt P37288)
Assay: human V1a receptor binding studies (3H-Vasopressin, SPA beads)
Conditions: membranes of HEK293 cells transiently transfected with human V1a receptor, Ki by Cheng-Prusoff
Method: The human V1a receptor was cloned by RT-PCR from total human liver RNA. The coding sequence was subcloned in an expression vector after sequencing to confirm the identity of the amplified sequence. […] Cell membranes were prepared from HEK293 cells transiently transfected with the expression vector and grown in 20 liter fermenters with the following protocol.
50 g of cells are re-suspended in 30 ml freshly prepared ice cold Lysis buffer ([…] HEPES. 1 mM EDTA, 10 mM MgCl2 adjusted to pH=7.4+complete cocktail of protease inhibitor (Roche Diagnostics)). Homogenized with Polytron for 1 min and sonicated on ice for 2×2 minutes at 80% intensity (Vibracell sonicator). The preparation is centrifuged 20 min at 500 g at 4° C., the pellet is discarded and the supernatant centrifuged 1 hour at 43'000 g at 4° C. (19'000 rpm). The pellet is re-suspended in 12.5 ml Lysis buffer+12.5 ml Sucrose 20% and homogenized using a Polytron for 1-2 min. The protein concentration is determined by the Bradford method and aliquots are stored at −80° C. until use. For binding studies 60 mg Yttrium silicate SPA beads (Amersham) are mixed with an aliquot of membrane in binding buffer (50 mM Tris, 120 mM NaCl, 5 mM KCl, 2 mM CaCl2, 10 mM MgCl) for 15 minutes with mixing. 50 μl of bead/membrane mixture is then added to each well of a 96 well plate, followed by […] of 4 nM 3H-Vasopressin (American Radiolabeled Chemicals). For total binding measurement 100 μl of binding buffer are added to the respective wells, for non-specific binding 100 μl of […] cold vasopressin and for compound testing 100 μl of a serial dilution of each compound in 2% DMSO. The plate is incubated 1 h at room temperature, centrifuged 1 min at 1000 g and counted on a Packard Top-Count. Non-specific binding counts are subtracted from each well and data is normalized to the maximum specific binding set at 100%. To calculate an IC 50 the curve is fitted using a non-linear regression model (XLfit) and the Ki is calculated using the Cheng-Prussoff equation.

Chain of human V1a receptor (P37288 whole entry): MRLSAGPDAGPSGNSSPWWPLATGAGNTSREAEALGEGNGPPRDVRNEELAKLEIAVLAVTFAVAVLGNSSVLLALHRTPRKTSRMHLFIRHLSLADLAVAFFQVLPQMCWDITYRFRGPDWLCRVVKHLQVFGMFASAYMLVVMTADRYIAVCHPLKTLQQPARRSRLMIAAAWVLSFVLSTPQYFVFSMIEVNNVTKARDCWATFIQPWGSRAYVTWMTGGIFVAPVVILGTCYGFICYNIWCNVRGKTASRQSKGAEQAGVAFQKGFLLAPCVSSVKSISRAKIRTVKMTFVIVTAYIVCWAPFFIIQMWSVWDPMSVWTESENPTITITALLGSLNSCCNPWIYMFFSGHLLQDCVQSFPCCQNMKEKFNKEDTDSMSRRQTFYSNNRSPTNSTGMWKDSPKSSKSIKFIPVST

pKi hV1a	SMILES
7.6	Cc1cnc2c(c1)C(=O)OC21CCN(C2=NC(=O)C3(Cc4ccccc4C3)O2)CC1 [Example 45, 3-methyl-1′-(4′-oxo-1,3-dihydro-4′H-spiro[indene-2,5′-[1,3]oxazol]-2′-yl)-5H-spiro[furo[3,4-b]pyridine-7,4′-piperidin]-5-one]
8.5	COc1ccc2c(c1)C(=O)OC21CCN(C2=NC(=O)C3(Cc4ccccc4C3)O2)CC1 [Example 8, 5-methoxy-1′-(4′-oxo-1,3-dihydro-4′H-spiro[indene-2,5′-[1,3]oxazol]-2′-yl)-3H-spiro[2-benzofuran-1,4′-piperidin]-3-one]
9.1	Cc1ccc2c(n1)C1(CCN(C3=NC(=O)C4(Cc5ccccc5C4)O3)CC1)OC2 [Example 42, 2′-(2-methyl-1′H,5H-spiro[furo[3,4-b]pyridine-7,4′-piperidin]-1′-yl)-1,3-dihydro-4′H-spiro[indene-2,5′-[1,3]oxazol]-4′-one]
9.3	CC1(C)OC2(CCN(C3=NC(=O)C4(Cc5cccc(O)c5C4)O3)CC2)c2cccnc21 (stereo not drawn) [Example 69, 2′-(7,7-dimethyl-1′H,7H-spiro[furo[3,4-b]pyridine-5,4′-piperidin]-1′-yl)-4-hydroxy-1,3-dihydro-4′H-spiro[indene-2,5′-[1,3]oxazol]-4′-one]
9.4	O=C1N=C(N2CCC3(CC2)OCc2ccccc23)OC12Cc1cc(F)c(F)cc1C2 [Example 34, 5,6-difluoro-2′-(1′H,3H-spiro[2-benzofuran-1,4′-piperidin]-1′-yl)-1,3-dihydro-4′H-spiro[indene-2,5′-[1,3]oxazol]-4′-one]
8.3	Cc1ccc2c(n1)C1(CCN(C3=NC(=O)C4(Cc5ccccc5C4)O3)CC1)OC2=O [Example 43, 2-methyl-1′-(4′-oxo-1,3-dihydro-4′H-spiro[indene-2,5′-[1,3]oxazol]-2′-yl)-5H-spiro[furo[3,4-b]pyridine-7,4′-piperidin]-5-one]
6.3	O=C1N=C(N2CCC3(CC2)OCc2ccccc23)OC12Cc1cnc(CCl)cc1C2 (stereo not drawn) [Example 57, 3-(chloromethyl)-2′-(1′H,3H-spiro[2-benzofuran-1,4′-piperidin]-1′-yl)-5,7-dihydro-4′H-spiro[cyclopenta[c]pyridine-6,5′-[1,3]oxazol]-4′-one]
8.9	O=C1OC2(CCN(C3=NC(=O)C4(Cc5ccccc5C4)O3)CC2)c2ccc(F)cc21 [Example 15, 5-fluoro-1′-(4′-oxo-1,3-dihydro-4′H-spiro[indene-2,5′-[1,3]oxazol]-2′-yl)-3H-spiro[2-benzofuran-1,4′-piperidin]-3-one]
8.1	COc1cccc2c1CC1(C2)OC(N2CCC3(CC2)OC(C)(C)c2ncccc23)=NC1=O (stereo not drawn) [Example 68, 2′-(7,7-dimethyl-1′H,7H-spiro[furo[3,4-b]pyridine-5,4′-piperidin]-1′-yl)-4-methoxy-1,3-dihydro-4′H-spiro[indene-2,5′-[1,3]oxazol]-4′-one]
